Laboratory results reported in patent US11026426B2, “Oxadiazole and phenol derivatives as antibacterial and/or herbicidal agents” (NORTHERN ILLINOIS RESEARCH FOUNDATION, priority 2017, dated 2021).
Read-outs that look alike come from different tables or passages of the source.

How the values were obtained:
[1] = molecular target: T1, Ec IspD (Escherichia coli, UniProt Q46893); experiment: Thermal shift (DSF) screening against Ec IspD; assay type: binding; settings: for change in the observed melting temperature of Ec IspD: MicroSource Spectrum screening
Protocol: The library based screening technique in conjunction with the thermal shift assay was implemented to evaluate compounds from Spectrum collection.
All DSF experiments were performed in 50 mM phosphate buffer at pH 7.4, 150 mM NaCl, 1×SYPRO orange, 2% DMSO and 200 to 1000 nM of the enzyme with a total volume of 25 μL. Final enzyme concentrations used were […] for Ec IspD and 0.5 μM for Bt IspD. Samples were measured on a Bio-Rad iQ5 Real-Time PCR (Bio-Rad Life Sciences) using a temperature range of 25 to 95° C. at a rate of 1° C. per minute with the fluorescence measured every 0.5° C. every 10 seconds with wavelengths of 530 and 570 nm used for excitation and emission, respectively. The melting temperature (Tm value) was determined from the first derivative of the graph of relative fluorescence units vs. temperature.

[2] = molecular target: T2, Mycobacterium tuberculosis IspD (MtIspD) (Mycobacterium tuberculosis, UniProt P9WKG9); experiment: Thermal shift assay against MtIspD; assay type: binding
T2 sequence (P9WKG9 1-231): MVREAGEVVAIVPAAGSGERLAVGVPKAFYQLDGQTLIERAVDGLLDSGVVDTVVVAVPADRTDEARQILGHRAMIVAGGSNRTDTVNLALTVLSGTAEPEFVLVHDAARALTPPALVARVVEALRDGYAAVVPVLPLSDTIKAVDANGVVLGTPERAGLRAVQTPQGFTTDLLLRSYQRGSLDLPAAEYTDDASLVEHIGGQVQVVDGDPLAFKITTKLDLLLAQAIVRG

[3] = molecular target: Lycopersicon esculentum IspE (LeIspE) (Solanum lycopersicum, UniProt P93841); experiment: Thermal shift assay against LeIspE; assay type: binding
[4] = test system: lettuce seeds; experiment: Lettuce leaf assay; assay type: in vivo; design: key: 0 (no effect); 5(complete inhibition or bleaching); settings: ranking 0-5
Procedure, shortened: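 Qualitative assay: compounds in volatile organic solvent applied to filter paper in a petri dish, solvent evaporated, lettuce seeds and 5 mL water added to give test concentrations. Germination, root development and leaf bleaching scored days 3 and 4, ranked 0 (no effect) to 5 (complete inhibition or bleaching).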

[5] = molecular target: AtIspD (Arabidopsis thaliana, UniProt P69834); experiment: University of Hamburg photometric enzymatic inhibition assay AtIspD; assay type: biochemical; settings: read-out: AtIspD IC50
Procedure, shortened: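 Coupled photometric assay: 2.4 mU AtIspD with 1 mM (2R,3S)-2,3-dihydroxy-4-oxopentyl phosphate, 2.1 mM CTP, excess IspE (0.4 U), ATP, pyruvate kinase/lactate dehydrogenase and 460 μM NADH. Run in 100 mM Tris-HCl pH 8.0, 10 mM MgCl2, 1 mM DTT, 1.1% DMSO at 27 °C, monitored photometrically.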

[6] = molecular target: LeIspE (Solanum lycopersicum, UniProt P93841); experiment: University of Hamburg photometric enzymatic inhibition assay LeIspE; assay type: biochemical, Lycopersicon esculentum; settings: read-out: LeIspE IC50
Procedure, shortened: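 Photometric coupled assay with pyruvate kinase/lactate dehydrogenase following NADH (460 μM). Mix: 100 mM Tris-HCl pH 8.0, 10 mM MgCl2, 1 mM DTT, 2.5 mM phosphoenolpyruvate, 2 mM ATP, 1 mM 4-diphosphocytidyl-2-C-methylerythritol, 1.1% DMSO, 2.4 mU IspE; incubated at 27° C.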

[7] = molecular target: AtIspF (Arabidopsis thaliana, UniProt Q9CAK8); experiment: University of Hamburg photometric enzymatic inhibition assay AtIspF; assay type: biochemical; settings: read-out: AtIspF IC50
Procedure, shortened: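 Coupled photometric assay (CMP kinase/pyruvate kinase/lactate dehydrogenase, NADH consumption) with 2.4 mU AtIspF and 1 mM 4-diphosphocytidyl-2C-methylerythritol 2-phosphate, 2 mM ATP, in 100 mM Tris-HCl pH 8.0, 10 mM MgCl2, 1.1% DMSO. Monitored at 27 °C.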

[8] = test system: Burkholderia thailandensis; assay type: cell-based; settings: preliminary screening; for BT score: score 0-3
[9] = test system: Mycobacterium smegmatis; experiment: Antibacterial preliminary screening MS; assay type: cell-based; settings: for MS score: score 0-3
[10] = test system: Corynebacterium xerosis; experiment: Antibacterial preliminary screening CX; assay type: cell-based; settings: score 0-3; note: key: 0 represents no inhibition; 3 is comparable to commercial antibiotic control
[11] = test system: Corynebacterium pseudodiphtheriae; experiment: Antibacterial preliminary screening CP; assay type: cell-based; settings: score 0-3;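 note: 0 is no inhibition and 3 matches the commercial antibiotic control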
[12] = test system: Escherichia coli; experiment: Antibacterial preliminary screening EC; assay type: cell-based; settings: score 0-3; note: key: 0 represents no inhibition; 3 is comparable to commercial antibiotic control
[13] = test system: Klebsiella pneumonia; experiment: Antibacterial preliminary screening KP; assay type: cell-based; settings: score 0-3; note: key: 0 represents no inhibition; 3 is comparable to commercial antibiotic control
[14] = test system: Micrococcus luteus; experiment: Antibacterial preliminary screening ML; assay type: cell-based; settings: score 0-3; note: key: 0 represents no inhibition; 3 is comparable to commercial antibiotic control
[15] = test system: Bacillus cereus; experiment: Antibacterial preliminary screening BC; assay type: cell-based; settings: score 0-3; note: key: 0 represents no inhibition; 3 is comparable to commercial antibiotic control
[16] = test system: Pseudomonas aeruginosa; experiment: Antibacterial preliminary screening PA; assay type: cell-based; settings: for PA score: score 0-3
[17] = molecular target: T1, Ec IspD; experiment: EnzChek enzymatic activity assay Ec IspD; assay type: biochemical
Protocol: The EnzChek® assay has a phosphate sensitivity of 2-150 μM. To ensure there is no interference caused by assay components, three standards were performed on each plate: buffer only, without CTP and without MEP.
Here, for the plate-based assay, IspD converts MEP to CDP-ME pyrophosphate, which in turn is converted to inorganic phosphate (Pi) with the enzyme inorganic pyrophosphatase. The EnzChek® Phosphate Assay kit follows the formation of the inorganic phosphate through a reaction with 2-amino-6-mercapto-7-methylpurine riboside (MESG) and the enzyme purine nucleoside phosphorylase (PNP). This reaction converts the MESG into ribose 1-phosphate and 2-amino-6-mercapto-7-methylpurine resulting in a spectrophotometric shift in a maximum absorbance from 330 nm to 360 nm. Reactions were performed in 50 μL final volumes in 96-well clear flat bottom plates, and were initiated by addition of 50 ng purified Ec IspD. Absorbance at 360 nm was measured every 31 seconds for 20 minutes on a Synergy 2 Multi-Mode plate reader (BioTek), preheated to 37° C. Final concentration of reagents was as follows: 1×EnzChek® reaction buffer (50 mM Tris pH 7.5, 1 mM magnesium chloride (MgCl2), 100 μM sodium azide (NaN3)), 0.2 mM MESG, 1 U/ml PNP, 1 U/mL inorganic Pyrophosphatase (NEB), 200 mM CMP (Sigma), and 50 μM MEP (Echelon).

Chain of AtIspD (P69834 62-302): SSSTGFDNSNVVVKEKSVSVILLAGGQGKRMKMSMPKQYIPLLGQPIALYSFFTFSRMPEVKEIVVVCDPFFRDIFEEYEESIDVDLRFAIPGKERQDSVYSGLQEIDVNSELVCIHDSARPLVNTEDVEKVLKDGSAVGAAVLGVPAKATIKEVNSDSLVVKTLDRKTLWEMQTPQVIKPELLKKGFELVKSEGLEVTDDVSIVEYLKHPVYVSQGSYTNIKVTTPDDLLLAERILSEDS
Chain of AtIspF (Q9CAK8 53-231): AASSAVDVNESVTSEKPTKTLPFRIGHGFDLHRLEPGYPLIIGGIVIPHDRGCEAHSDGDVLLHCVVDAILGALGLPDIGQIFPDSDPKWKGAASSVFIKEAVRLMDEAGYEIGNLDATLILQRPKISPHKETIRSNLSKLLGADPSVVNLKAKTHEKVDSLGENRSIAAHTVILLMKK
Chain of LeIspE (P93841 89-401): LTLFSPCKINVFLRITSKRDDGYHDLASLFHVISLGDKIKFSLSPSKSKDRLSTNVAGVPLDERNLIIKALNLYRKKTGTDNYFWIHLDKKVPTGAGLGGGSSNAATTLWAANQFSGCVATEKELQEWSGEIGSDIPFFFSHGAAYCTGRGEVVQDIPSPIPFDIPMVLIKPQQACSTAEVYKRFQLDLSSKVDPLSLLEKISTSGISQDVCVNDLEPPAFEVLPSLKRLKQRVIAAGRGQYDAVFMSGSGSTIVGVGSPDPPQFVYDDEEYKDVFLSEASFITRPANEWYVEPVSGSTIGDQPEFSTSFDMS
Chain of Lycopersicon esculentum IspE (LeIspE) (P93841 89-401): as above
T1 sequence (Q46893 whole entry): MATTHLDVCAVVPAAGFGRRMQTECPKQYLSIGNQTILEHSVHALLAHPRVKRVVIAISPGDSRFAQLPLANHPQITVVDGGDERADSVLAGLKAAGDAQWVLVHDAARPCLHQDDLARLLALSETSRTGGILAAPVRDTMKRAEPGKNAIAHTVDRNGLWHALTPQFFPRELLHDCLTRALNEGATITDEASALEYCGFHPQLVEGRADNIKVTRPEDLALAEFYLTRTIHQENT

With `[O-][n+]1ccccc1S` [2-mercaptopyradine-N-oxide, 2-mercaptopyridine-N-oxide] the “effect on thermal stability of Ec IspD” value [1] was “did not have an effect on the thermal stability”.

In the case of `Cc1ccc(-c2nnc(-c3nc4ccccc4s3)o2)cc1` [HGN-338, 2-(benzo[d]thiazol-2-yl)-5-(p-tolyl)-1,3,4-oxadiazole], the “MtIspD melting point change” value [2] is reported as 0.0 °C, the MtIspD melting temp [2] is reported as 48.0 °C and the “LeIspE melting point change” value [3] is reported as −1.50 °C. For the same compound, the LeIspE melting temp [3] was 48.00 °C, the Bleaching ([4]; 0.15 mM) was 0 and the Germination ([4]; 0.15 mM) was 0. For the same compound, the “Root Dev.” value ([4]; 0.15 mM) was 0, the Bleaching ([4]; 0.3 mM) was 0 and the Germination ([4]; 0.3 mM) was 1. The “Root Dev.” value ([4]; 0.3 mM) was 0, the IC50 [5] was > 500 µM and the IC50 [6] was > 500 µM. For the same compound, the IC50 [7] was > 500 µM, the BT score [8] was 0 and the MS score [9] was 0. For the same compound, the CX score [10] was 0, the CP score [11] was 0 and the EC score [12] was 0. It also gave a KP score [13] of 0, an ML score [14] of 0 and a BC score [15] of 0. For the same compound, the PA score [16] was 0 and the melting point was 155 to 160 °C.

With `Clc1ccc(-c2nnc(-c3nc4ccccc4s3)o2)cc1` [HGN-339, 2-(benzo[d]thiazol-2-yl)-5-(4-chlorophenyl)-1,3,4-oxadiazole] the “MtIspD melting point change” value [2] was 1.3 °C, the MtIspD melting temp [2] was 49.3 °C and the “LeIspE melting point change” value [3] was −2.00 °C. The LeIspE melting temp [3] was 47.50 °C, the Bleaching ([4]; 0.15 mM) was 0 and the Germination ([4]; 0.15 mM) was 0. For the same compound, the “Root Dev.” value ([4]; 0.15 mM) was 0, the Bleaching ([4]; 0.3 mM) was 0 and the Germination ([4]; 0.3 mM) was 0. The “Root Dev.” value ([4]; 0.3 mM) was 0, the IC50 [5] was 158 µM and the IC50 [6] was > 500 µM. For the same compound, the IC50 [7] was > 500 µM, the BT score [8] was 0 and the MS score [9] was 0. The CX score [10] was 0, the CP score [11] was 0 and the EC score [12] was 0. The KP score [13] was 0, the ML score [14] was 0 and the BC score [15] was 0. It also gave a PA score [16] of 0 and a melting point of 161 to 163 °C.

With `Oc1c(Br)cc(Br)cc1-c1cc2ccccc2[nH]1` [HGN-340, 2,4-dibromo-6-(1H-indol-2-yl)phenol] the “MtIspD melting point change” value [2] was 1.3 °C, the MtIspD melting temp [2] was 49.3 °C and the “LeIspE melting point change” value [3] was 0.50 °C. It also gave a LeIspE melting temp [3] of 50.00 °C, a Bleaching ([4]; 0.15 mM) of 0 and a Germination ([4]; 0.15 mM) of 0. For the same compound, the “Root Dev.” value ([4]; 0.15 mM) was 0, the Bleaching ([4]; 0.3 mM) was 0 and the Germination ([4]; 0.3 mM) was 0. The “Root Dev.” value ([4]; 0.3 mM) was 0, the IC50 [5] was 50 µM and the IC50 [6] was > 500 µM. It also gave an IC50 [7] of 470 ± 116 µM, a BT score [8] of 0 and an MS score [9] of 0. For the same compound, the CX score [10] was 0, the CP score [11] was 0 and the EC score [12] was 0. For the same compound, the KP score [13] was 0, the ML score [14] was 0 and the BC score [15] was 2. For the same compound, the “effectiveness against Pseudomonas aeruginosa” value [16] was “moderately effective”, the PA score [16] was 0 and the melting point was 104 to 110 °C.

With `Clc1ccc(-c2nnc(-c3nc4ccccc4[nH]3)o2)cc1` [HGN-421, 2-(1H-benzo[d]imidazole-2-yl)-5-(4-chlorophenyl)-1,3,4-oxadiazole] the “MtIspD melting point change” value [2] was 0.8 °C, the MtIspD melting temp [2] was 48.8 °C and the “LeIspE melting point change” value [3] was −1.50 °C. For the same compound, the LeIspE melting temp [3] was 48.00 °C, the Bleaching ([4]; 0.15 mM) was 0 and the Germination ([4]; 0.15 mM) was 1. The “Root Dev.” value ([4]; 0.15 mM) was 0, the Bleaching ([4]; 0.3 mM) was 0 and the Germination ([4]; 0.3 mM) was 1. For the same compound, the “Root Dev.” value ([4]; 0.3 mM) was 0, the IC50 [5] was 88 µM and the IC50 [6] was 298 ± 49 µM. The IC50 [7] was 484 ± 95 µM, the “antibacterial activity against Burkholderia thailandensis” value [8] was “slight antibacterial activity” and the BT score [8] was 1. The “antibacterial activity against Mycobacterium smegmatis” value [9] was “slight antibacterial activity”, the MS score [9] was 1 and the CX score [10] was 0. The CP score [11] was 0, the EC score [12] was 0 and the KP score [13] was 0. It also gave an ML score [14] of 0, a BC score [15] of 0 and a PA score [16] of 0. It also gave a melting point of 250 to 255 °C.

For `FC(F)(F)c1ccc(-c2nnc(-c3nc4ccccc4[nH]3)o2)cc1` [HGN-422, 2-(1H-benzo[d]imidazol-2-yl)-5-(4-(trifluoromethyl)phenyl)-1,3,4-oxadiazole], the “MtIspD melting point change” value [2] was 1.0 °C, the MtIspD melting temp [2] was 49.0 °C and the “LeIspE melting point change” value [3] was −3.25 °C. For the same compound, the LeIspE melting temp [3] was 46.25 °C, the Bleaching ([4]; 0.15 mM) was 0 and the Germination ([4]; 0.15 mM) was 0. For the same compound, the “Root Dev.” value ([4]; 0.15 mM) was 0, the Bleaching ([4]; 0.3 mM) was 0 and the Germination ([4]; 0.3 mM) was 0. For the same compound, the “Root Dev.” value ([4]; 0.3 mM) was 0, the IC50 [5] was 251 µM and the IC50 [6] was 267 µM. For the same compound, the IC50 [7] was > 500 µM, the “antibacterial activity against Burkholderia thailandensis” value [8] was “slight antibacterial activity” and the BT score [8] was 1. The “antibacterial activity against Mycobacterium smegmatis” value [9] was “slight antibacterial activity”, the MS score [9] was 1 and the CX score [10] was 0. The CP score [11] was 0, the EC score [12] was 0 and the KP score [13] was 0. For the same compound, the ML score [14] was 0, the BC score [15] was 0 and the PA score [16] was 0. It also gave a melting point of 275 to 280 °C.

In the case of `[O-][n+]1ccccc1[S][Zn][S]c1cccc[n+]1[O-]` [Zinc Pyrathione], the “change in the observed melting temperature of Ec IspD” value (“change … of Ec IspD” below) [1] is reported as −7.72 °C.

With `CC(=O)[O-].CC(=O)[O-].[Cd+2]` [cadmium acetate] the “change … of Ec IspD” value [1] was −13.53 °C.

With `CC(C)c1cc2c(c(O)c1O)[C@@]1(C(=O)O)CCCC(C)(C)[C@@H]1CC2` [carnosic acid] the IC50 [17] was 794 ± 100 µM.

For `C[CH2][Hg][Cl]` [ethyl mercuric chloride], the “effect on thermal stability of Ec IspD” value [1] was “affected the stability of the enzyme”.

`O=C(/C=C/c1ccc(O)cc1)c1ccc(O)cc1O` [isoliquiritigenin] showed an IC50 [17] of 279 ± 12 µM.

For `C[CH2][Hg][S]c1ccccc1C(=O)[O-].[Na+]` [thimerosal, reference compound], the “change … of Ec IspD” value [1] was “+3.53 °C” and the IC50 ([17]; EnzChek assay, read-out: Ec IspD IC50) was 381 ± 12 µM.
